Target: PKL (Homo sapiens, UniProt P30613)
Assay: Recombinant PKL activity assay (Kinase-Glo MAX)
Format: biochemical
Design: co-crystallisation of full-length PKL (including the B-domain); 8xHis (TEV-cleavable) (N, cleaved yes); made in house; host or cells: E. coli T7 Express (NEB), pExp-NHis plasmid
Method: The two isozymes were incubated with increasing concentrations of compounds before the addition of substrates PEP and adenosine diphosphate (ADP), and the reactions were monitored using a Kinase‐Glo MAX assay.
Figure S2. […] The reactions were terminated by the addition of Kinase Glo-MAX reagent after 10 min, and the luminescence from each reaction was quantified using a plate reader. The activity values are expressed as a percentage of PK activity of the DMSO control. The potencies were calculated by best fit of the Hill equation to the luminescence data.^[2] (A) PKL titrations. (B) PKM2 titrations. Error bars represent the ±SE of replicates (n = 3).
The reaction mixture contained 0.2 mM ADP, 0.1 mM PEP, 5 nM PKL, 1% DMSO, and test compounds at concentrations ranging from 0 to 1 mM across 12 titration points. Prior to substrate addition, PKL and test compounds were pre-incubated for 15 minutes.
After the reaction, 5 µL of Kinase-Glo Max reagent was added to each well. […] For each data set, luminescence from the DMSO control was set as 100% activity, and luminescence from the protein blank (no PKL) as 0% activity. Percentage activity (E%) was calculated using the equation: […]
Titration data was fitted to the Hill equation in Origin to determine EC₅₀ values.

PKL, sequence (P30613 1-543 isoform P30613-2): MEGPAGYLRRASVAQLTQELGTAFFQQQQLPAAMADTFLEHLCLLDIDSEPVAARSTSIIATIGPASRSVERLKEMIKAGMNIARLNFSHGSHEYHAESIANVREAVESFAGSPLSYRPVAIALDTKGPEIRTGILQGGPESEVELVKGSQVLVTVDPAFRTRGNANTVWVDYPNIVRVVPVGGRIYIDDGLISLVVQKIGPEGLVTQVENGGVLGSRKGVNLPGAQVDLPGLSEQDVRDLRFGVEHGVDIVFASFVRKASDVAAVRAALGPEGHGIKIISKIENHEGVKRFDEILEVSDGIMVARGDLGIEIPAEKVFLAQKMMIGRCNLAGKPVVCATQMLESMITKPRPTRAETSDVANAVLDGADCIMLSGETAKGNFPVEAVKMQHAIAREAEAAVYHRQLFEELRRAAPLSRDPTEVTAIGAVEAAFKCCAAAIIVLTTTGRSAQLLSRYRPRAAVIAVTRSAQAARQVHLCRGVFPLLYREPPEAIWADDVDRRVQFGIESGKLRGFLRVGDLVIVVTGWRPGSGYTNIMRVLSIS

- EC50 (recombinant PKL 10 nM, 15 min pre-incubation, PEP 0.1 mM, ADP 0.2 mM): 13 nM
- PKL E max (recombinant PKL, above 100% activation, below 100% inhibition): 169 % vehicle
SMILES: CN(C)c1ccc(S(=O)(=O)c2ccc3c(=O)n(Cc4cc[nH]n4)ncc3c2)c2nonc12 [Compound IV, 2-((1H-Pyrazol-3-yl)methyl)-6-((7-(dimethylamino)benzo[c][1,2,5]oxadiazol-4-yl)sulfonyl)phthalazin-1(2H)-one]

Reference: article PMC12518693, “Potent Fluorescent Probe for Target‐Engagement Studies of Allosteric Pyruvate Kinase Modulators” (Angewandte Chemie (International Ed. in English), 2025)
